Test system: C3H mice
Experiment: Telogen Conversion Assay
Assay type: in vivo
Details: for hair growth (average grade): grades of 7 mice after 23 days, example written in present tense; for hair regrowth (regrowth score, FIG. 1): applied daily, week 3 and week 4, at the appropriate dose-level, compared to the control group; for Average Grades: average of 7 mice, visual grade 0 (pink skin) to 4 (full anagen), topical
Procedure: FP receptor antagonists are tested for their potential to […] using the Telogen Conversion Assay. The Telogen Conversion Assay measures the potential of a FP receptor antagonist to inhibit the conversion of mice in the resting stage of the hair growth cycle (“telogen”), to the growth stage of the hair growth cycle (“anagen”), and to assess the rate of anagen growth.
Without intending to be limited by theory, there are three principal phases of the hair growth cycle: anagen, catagen, and telogen. It is believed that there is a longer telogen period in C3H mice (Harlan Sprague Dawley, Inc., Indianapolis, Ind.) from approximately 40 days of age until about 75 days of age, when hair growth is synchronized. It is believed that after 75 days of age, hair growth is no longer synchronized. Wherein about 40 day-old mice with dark fur (brown or black) are used in hair growth experiments, melanogenesis occurs along with hair (fur) growth wherein the topical application of hair growth inducers is evaluated. The Telogen Conversion Assay herein is used to screen FP receptor antagonists for potential hair growth by measuring melanogenesis and/or inhibition of expected hair growth.
Three groups of 44 day-old C3H mice are used: a vehicle control group, a positive control group, and a test FP receptor antagonist group, wherein the test FP receptor antagonist group is administered a FP receptor antagonist F used in the method of this invention. The length of the assay is typically 24 days with 15 treatment days (wherein the treatment days occur Mondays through Fridays). Day 1 is the first day of treatment. Typical dosage concentrations are set forth in Table 1, however the skilled artisan will readily understand that such concentrations may be modified.
The mice are treated topically Monday through Friday on their lower back (base of tail to the lower rib). A pipette and tip are used to deliver 400 μl to each mouse's back. The 400 μL application is applied slowly while moving hair on the mouse to allow the application to reach the skin.
While each treatment is being applied to the mouse topically, a visual grade of from 0 to 4 will be given to the skin color in the application area of each animal. As a mouse converts from telogen to anagen, its skin color will become more bluish-black.

Molecule	hair growth (average grade)	hair regrowth (regrowth score, FIG. 1)	Average Grades (23 Days)	Average Grades (25 Days)	Average Grades (26 Days)
Ile-Leu-Gly-His-(citrulline)-Asp-Tyr-Lys [Example 5]	significantly reduces hair growth				
O=C(N[C@H](c1ccccc1)c1ccccn1)[C@@H]1SCCN1S(=O)(=O)c1ccc(-c2ccccc2)cc1 [Example 3]	significantly reduces hair growth	inhibited hair regrowth			
COC(=O)CCC/C=C\CC1C(/C=C/[C@H](O)C2Cc3ccccc3C2)[C@@H](F)C[C@@H]1O (stereo partly drawn) [Example 2]		inhibited hair regrowth	0.1		
O=C(O)CCC/C=C\CC1C(/C=C/[C@H](O)C2Cc3ccccc3C2)[C@@H](F)C[C@@H]1O (stereo partly drawn) [Example 1]			0.4	0.1	0.7
CC(C)OC(=O)CCC/C=C\CC1C(/C=C/[C@H](O)C2Cc3ccccc3C2)[C@@H](F)C[C@@H]1O (stereo partly drawn) [Example 4]	significantly reduces hair growth				
